Source: patent US20130109616A1, “ANTIMICROBIAL PEPTIDES” (priority 2010, published 2013)
“Also recorded” adds a separate entry of the source.

Tests used:
[1] = test system: Bacillus subtilis membranes; test: Membrane-binding ELISA; conditions: expressed peptide fused to 3×FLAG-10×His, no protease
[2] = test system: subtilisin or V8 protease; test: Protease resistance: membrane-binding ELISA after protease pre-incubation; conditions: subtilisin and/or V8 protease, 30 minutes at room temperature, FIG. 1
E. coli = test: Modified microtitre broth dilution, IC50/IC90; format: cell-based, Escherichia coli; design: unit not given here
[3] = test system: Burkholderia cepacia J2540; format: cell-based
[4] = test system: B. anthracis UM23-CI2 vegetative cells; format: cell-based, Bacillus anthracis
Vaccinia virus = format: cell-based
[5] = test system: B. anthracis UM23-CI2 spores; format: cell-based, Bacillus anthracis
[6] = test system: Candida albicans (SC5314); test: Serial dilution growth/killing assay; format: cell-based; conditions: serial dilutions, 14 hours at 30° C., FIG. 6; peptides C-terminally amidated
[7] = test system: Staphylococcus aureus (NC131142); test: Serial dilution growth/killing assay; format: cell-based; conditions: peptides C-terminally amidated

Row | Substance | binding to immobilised Bacillus subtilis membranes (ELISA signal) [1] | ELISA binding signal after protease treatment (proteolytic resistance) [2] | IC50 (E. coli) | IC90 (E. coli) | activity against B. cepacia at 24 hours [3] | reduction of the starting culture of B. cepacia [3] | change in cell number, exponential phase cells [4] | duration of antibacterial activity, vegetative cells [4] | anti-viral activity against Vaccinia virus compared with LL-37 (Vaccinia virus) | bactericidal activity against Bacillus anthracis spores (in words) [5] | duration of antibacterial activity, spores [5] | effect on growth of B. cepacia [3] | killing of C. albicans compared with MAF-23 peptides [6] | colonies recovered, S. aureus ([7]; 25 nM peptide) | killing of S. aureus compared with MAF-23 peptides ([7]; serial dilutions, 14 hours at 30° C., FIG. 5) | activity against Bacillus anthracis vegetative cells (in words) [4]
1 | wild-type full length LL-37 peptide fused to 3×FLAG-10×His [reference compound] | significant binding | abolished the signal | – | – | – | – | – | – | – | – | – | – | – | – | – | –
2 | FKRIVQRIKDFLRKLVPRIMS [Peptide H04] | – | – | 7.8-15.6 | 15.6-31.3 | no bacteria were detectable; also recorded: effective killing activity over the entire duration of the 24-hour testing period | 99.9% | further reductions in cell number | still effective at the end of the 24-hour period | greater anti-viral activity than the wild-type peptide, LL-37 | improved bactericidal activity | still effective at the end of the 24-hour period | – | – | – | – | –
3 | LLGVFFRKRKAKIGKKFKRILQRIKDFRRNLVPRIKS [Peptide C11] | – | – | 15.6-31.3 | 31.3-62.5 | – | – | – | – | – | improved bactericidal activity | – | prevent B. cepacia from growing | – | – | – | –
4 | VKRIVQRIKVFLRNLMPRSKS [Peptide G11] | – | increase signal strength | 31.3-62.5 | 62.5-125 | – | – | – | – | – | improved bactericidal activity | – | prevent B. cepacia from growing | – | – | – | –
5 | FRRIVQRIKDFLRNLVMRRKN [Peptide F11, FRRIVQRIKDFLRNLV MRRKN] | – | – | 7.8-15.6 | 7.8-15.6 | effective killing activity over the entire duration of the 24-hour testing period | ~99% | further reductions in cell number | still effective at the end of the 24-hour period | greater anti-viral activity than the wild-type peptide, LL-37 | improved bactericidal activity | still effective at the end of the 24-hour period | – | killed C. albicans more effectively than the wild type peptides MAF23 and acetylated MAF23 | approximately 10^3 colonies/ml | killed S. aureus more effectively than the MA23 or N-terminally acetylated MA23 | –
6 | LLGDFFRKSKEKIGKEFKRIVQRIKDFLRNLVPRTES [LL-37, reference compound] | – | – | 15.6-31.3 | 15.6-31.3 | – | – | – | – | – | better activity than MA-22 | activity was lost within the 24 hour period | no effect on the growth | – | – | – | did not have activity
